Source: ChEMBL document CHEMBL1135287, “Anisylazoformylarginine: a superior assay substrate for carboxypeptidase B type enzymes” (Bioorg Med Chem Lett, 2002)

How the values were obtained:
Sus scrofa [1] = species: Sus scrofa; assay: Kinetic constant in the presence of porcine carboxypeptidase B
Sus scrofa [2] = species: Sus scrofa; assay: Specificity constant kcat/Km was obtained at pH of 7.9, 25 degree C by the porcine carboxypeptidase B

Km (Sus scrofa [1]): 44 µM | k cat (Sus scrofa [1]): 44 s⁻¹ | k cat/Km (Sus scrofa [2]): 1e+06 M⁻¹ s⁻¹
SMILES: COc1ccc(/N=N/C(=O)N[C@@H](CCCN=C(N)N)C(=O)O)cc1
